Measured values published in the supplement of paper PMC10307832.

What was measured:
Test in all cases: relative viability (nuclei count vs DMSO), 5 days (fraction); higher = more cells survive
NCI-H1395 = test system: NCI-H1395
How it was run: (§1)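 Lung cancer cell lines were seeded in 1536-well plates and dosed by pin tool the next day, with either a single drug or a fixed anchor-drug dose combined with five library-drug doses (not always all listed) spaced in √10 steps. Five days later, one step fixed the cells and stained their nuclei (final 0.05% Triton X-100, 1% formaldehyde, 1 ug/ml Hoechst), and nuclei were counted on 4× images. Relative viability is the nuclei count in treated wells divided by the count in vehicle wells, and each value is the median of duplicate plates.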

NCI-H1793 = test system: NCI-H1793
How it was run: as §1

EMC-BAC-2 = test system: EMC-BAC-2
How it was run: as §1

UMC-11 = test system: UMC-11
How it was run: as §1

NCI-H2405 = test system: NCI-H2405
How it was run: as §1

NCI-H1915 = test system: NCI-H1915
How it was run: as §1

IA-LM = test system: IA-LM
How it was run: as §1

RERF-LC-KJ = test system: RERF-LC-KJ
How it was run: as §1

LCLC-103H = test system: LCLC-103H
How it was run: as §1

NCI-H1437 = test system: NCI-H1437
How it was run: as §1

NCI-H2342 = test system: NCI-H2342
How it was run: as §1

NCI-H2023 = test system: NCI-H2023
How it was run: as §1

NCI-H1651 = test system: NCI-H1651
How it was run: as §1

201T = test system: 201T
How it was run: as §1

SK-LU-1 = test system: SK-LU-1
How it was run: as §1

NCI-H1975 = test system: NCI-H1975
How it was run: as §1

ABC-1 = test system: ABC-1
How it was run: as §1

LOU-NH91 = test system: LOU-NH91
How it was run: as §1

HCC-78 = test system: HCC-78
How it was run: as §1

NCI-H23 = test system: NCI-H23
How it was run: as §1

NCI-H647 = test system: NCI-H647
How it was run: as §1

EPLC-272H = test system: EPLC-272H
How it was run: as §1

NCI-H661 = test system: NCI-H661
How it was run: as §1

## CCCCCCCCCCCC1=C(O)C(=O)C=C(O)C1=O [Embelin] + O=C(CCCCCCC(=O)Nc1ccccc1)NO [Vorinostat] (partner 1 µM)
NCI-H1395; first compound 0.08 µM
  relative viability: 0.615
NCI-H1395; first compound 0.8 µM
  relative viability: 1
NCI-H1395; first compound 2.53 µM
  relative viability: 0.48
NCI-H1395; first compound 8 µM
  relative viability: 0.521
NCI-H1793; first compound 0.08 µM
  relative viability: 0.728
NCI-H1793; first compound 0.8 µM
  relative viability: 0.842
NCI-H1793; first compound 2.53 µM
  relative viability: 0.754
NCI-H1793; first compound 8 µM
  relative viability: 0.439
EMC-BAC-2; first compound 0.08 µM
  relative viability: 0.344
EMC-BAC-2; first compound 0.8 µM
  relative viability: 0.561
EMC-BAC-2; first compound 2.53 µM
  relative viability: 0.257
EMC-BAC-2; first compound 8 µM
  relative viability: 0.269
UMC-11; first compound 0.08 µM
  relative viability: 0.39
UMC-11; first compound 0.8 µM
  relative viability: 0.407
UMC-11; first compound 2.53 µM
  relative viability: 0.372
UMC-11; first compound 8 µM
  relative viability: 0.393
NCI-H2405; first compound 0.08 µM
  relative viability: 1.01
NCI-H2405; first compound 0.8 µM
  relative viability: 1.13
NCI-H2405; first compound 2.53 µM
  relative viability: 0.95
NCI-H2405; first compound 8 µM
  relative viability: 0.899
NCI-H1915; first compound 0.08 µM
  relative viability: 0.563
NCI-H1915; first compound 0.8 µM
  relative viability: 0.544
NCI-H1915; first compound 2.53 µM
  relative viability: 0.521
NCI-H1915; first compound 8 µM
  relative viability: 0.473
IA-LM; first compound 0.08 µM
  relative viability: 0.963
IA-LM; first compound 0.8 µM
  relative viability: 1.03
IA-LM; first compound 2.53 µM
  relative viability: 1.2
IA-LM; first compound 8 µM
  relative viability: 0.937
RERF-LC-KJ; first compound 0.08 µM
  relative viability: 0.673
RERF-LC-KJ; first compound 0.8 µM
  relative viability: 0.769
RERF-LC-KJ; first compound 2.53 µM
  relative viability: 0.681
RERF-LC-KJ; first compound 8 µM
  relative viability: 0.603
LCLC-103H; first compound 0.08 µM
  relative viability: 0.851
LCLC-103H; first compound 0.8 µM
  relative viability: 0.885
LCLC-103H; first compound 2.53 µM
  relative viability: 0.75
LCLC-103H; first compound 8 µM
  relative viability: 0.714
NCI-H1437; first compound 0.08 µM
  relative viability: 0.83
NCI-H1437; first compound 0.8 µM
  relative viability: 0.943
NCI-H1437; first compound 2.53 µM
  relative viability: 0.853
NCI-H1437; first compound 8 µM
  relative viability: 0.392
NCI-H2342; first compound 0.08 µM
  relative viability: 0.766
NCI-H2342; first compound 0.8 µM
  relative viability: 0.828
NCI-H2342; first compound 2.53 µM
  relative viability: 0.887
NCI-H2342; first compound 8 µM
  relative viability: 0.73
NCI-H2023; first compound 0.08 µM
  relative viability: 0.622
NCI-H2023; first compound 0.8 µM
  relative viability: 0.701
NCI-H2023; first compound 2.53 µM
  relative viability: 0.565
NCI-H2023; first compound 8 µM
  relative viability: 0.392
NCI-H1651; first compound 0.08 µM
  relative viability: 0.576
NCI-H1651; first compound 0.8 µM
  relative viability: 0.629
NCI-H1651; first compound 2.53 µM
  relative viability: 0.575
NCI-H1651; first compound 8 µM
  relative viability: 0.59
201T; first compound 0.08 µM
  relative viability: 0.993
201T; first compound 0.8 µM
  relative viability: 1.01
201T; first compound 2.53 µM
  relative viability: 1.04
201T; first compound 8 µM
  relative viability: 0.851
SK-LU-1; first compound 0.08 µM
  relative viability: 0.892
SK-LU-1; first compound 0.8 µM
  relative viability: 0.954
SK-LU-1; first compound 2.53 µM
  relative viability: 0.75
SK-LU-1; first compound 8 µM
  relative viability: 0.518
NCI-H1975; first compound 0.08 µM
  relative viability: 0.717
NCI-H1975; first compound 0.8 µM
  relative viability: 0.741
NCI-H1975; first compound 2.53 µM
  relative viability: 0.75
NCI-H1975; first compound 8 µM
  relative viability: 0.729
ABC-1; first compound 0.08 µM
  relative viability: 1.04
ABC-1; first compound 0.8 µM
  relative viability: 1.48
ABC-1; first compound 2.53 µM
  relative viability: 0.955
ABC-1; first compound 8 µM
  relative viability: 0.86
LOU-NH91; first compound 0.08 µM
  relative viability: 0.939
LOU-NH91; first compound 0.8 µM
  relative viability: 1.2
LOU-NH91; first compound 2.53 µM
  relative viability: 0.933
LOU-NH91; first compound 8 µM
  relative viability: 0.876
HCC-78; first compound 0.08 µM
  relative viability: 0.467
HCC-78; first compound 0.8 µM
  relative viability: 0.547
HCC-78; first compound 2.53 µM
  relative viability: 0.553
HCC-78; first compound 8 µM
  relative viability: 0.401
NCI-H23; first compound 0.08 µM
  relative viability: 0.58
NCI-H23; first compound 0.8 µM
  relative viability: 0.604
NCI-H23; first compound 2.53 µM
  relative viability: 0.584
NCI-H23; first compound 8 µM
  relative viability: 0.433
NCI-H647; first compound 0.08 µM
  relative viability: 0.58
NCI-H647; first compound 0.8 µM
  relative viability: 0.985
NCI-H647; first compound 2.53 µM
  relative viability: 0.732
NCI-H647; first compound 8 µM
  relative viability: 0.58
EPLC-272H; first compound 0.08 µM
  relative viability: 0.372
EPLC-272H; first compound 0.8 µM
  relative viability: 0.62
EPLC-272H; first compound 2.53 µM
  relative viability: 0.471
EPLC-272H; first compound 8 µM
  relative viability: 0.363
NCI-H661; first compound 0.08 µM
  relative viability: 0.787
NCI-H661; first compound 0.8 µM
  relative viability: 0.826
NCI-H661; first compound 2.53 µM
  relative viability: 0.788
NCI-H661; first compound 8 µM
  relative viability: 0.745
